The values that follow come from patent US20120178667A1, “METHODS FOR TREATING SEPTIC SHOCK” (THE GOVERNMENT OF THE UNITED STATES OF AMERICA, dba THE …, priority 2006, published 2012).

The subject of test [1] is murine bEND.3 endothelial cell line. In words: LPS-induced MIP-2 and IL-6 production by endothelial cells (ELISA of supernatants). It is filed as cell-based. The note with it: 15 μg/well or 20 μg/well peptide, 15 min pre-treatment, LPS 12.5 ng/well, 4-hour supernatants. As to the method: FIG. 1 is a set of bar graphs showing P13 inhibition of macrophage inflammatory protein (MIP)-2 and interleukin (IL)-6. Murine endothelial cell line bEND.3 (2×10^5 cells/48-well plate) were pre-treated for 15 minutes with P13 or scrambled control peptide at matching peptide concentrations (15 or 20 μg/well) and then with LPS (12.5 ng/well). MIP-2 and IL-6 were quantified by ELISA from 4-hour cell-free supernatants. Cytokine values represent means +/−S.D. from quadruplicate wells/experimental condition.
Quantification of cytokines from cell supernatants. IL-6 and MIP-2 ELISA kits were used to assay cytokine levels in cell culture supernatants according to the protocols provided by the manufacturer (R&D Systems, Minneapolis, Minn.).
Because endothelial cells can be activated and even damaged in response to LPS exposure, the effect of treatment with peptide P13 on LPS-induced cytokine responses from the murine bEND.3 endothelial cell line was examined. Treatment of the bEND cells with LPS induced secretion of MIP-2 and IL-6.
Background: ELISA stands for enzyme-linked immunosorbent assay.

Test [2] relates to BALB/c mice. In words: LPS-induced serum TNF-α and soluble ICAM-1 in mice (ELISA). Type of test: in vivo. The note with it: serum 2 hours after LPS. As to the method:
FIG. 2 is a set of bar graphs showing P13 inhibition of serum inflammatory mediators. BALB/c mice were injected intraperitoneally (i.p.) with 5 mg/kg LPS and 30 minutes later injected i.p. with P13 (15, 50, or 75 μg) or PBS. Two hours after LPS injection, serum was collected and TNF-α and soluble ICAM-1 were quantified by ELISA. Values represent means +/−S.D.
Serum cytokines and soluble ICAM-1. BALB/c female mice were injected intraperitoneally (i.p.) with 5 mg/kg of LPS and peptide P13 (15, 50, or 75 μg) or PBS was injected i.p. 30 minutes later. Two hours after injection of LPS, serum was collected and TNF-α and soluble ICAM-1 quantified by ELISA (R&D Systems).
To determine the effect of peptide treatment on the induction of serum inflammatory mediators, mice were injected with a sub-lethal high dose of LPS and 30 minutes later with P13 or phosphate buffered saline (PBS). Serum was collected 2 hours after treatment with LPS. TNF-α and soluble ICAM-1 were quantified by ELISA. […] The effect of delayed peptide P13 treatment at different doses of peptide on LPS-induced production of soluble ICAM-1 was examined.

In test [3] the test system is BALB/c mice. In words: LPS-induced sepsis model, lethality after high dose LPS. It is filed as in vivo. The note with it: LPS 70 mg/kg i.p.; peptide 75 μg s.c. at 2 and 6 hours after LPS. As to the method: FIG. 3 is a line graph illustrating decreased mortality in P13-treated mice after high dose LPS. BALB/c mice were injected i.p. with LPS (70 mg/kg) and 2 and 6 hrs later treated s.c. with P13 or control peptide (75 μg/mouse/injection). The mice (10 animals/group) were monitored every 3-4 hours for lethality, and the experiment was terminated after 96 hrs.
LPS-induced sepsis. Female BALB/c mice were injected i.p. with 70 mg/kg of LPS. At 2 and 6 hours after injection of LPS, mice were treated with scrambled control peptide or peptide P13. The peptides were administered subcutaneously at 75 μg/animal/injection time, with 10 mice/treatment group. The mice were monitored every 3-4 hours and the experiment was terminated after 96 hours.
As P13 inhibited production of inflammatory mediators in vivo, an LPS-induced murine sepsis model was used to determine the effect of peptide P13 on survival. Mice were injected with lethal dose of LPS (70 mg/kg) and treated 2 and 6 hours later with scrambled control peptide (75 μg) or a matching concentration of peptide P13. […] The experiment was terminated at 96 hours and P13 treated mice remained at 40% survival (FIG. 3). These studies confirm the in vivo activity of peptide P13 to reduce lethality in an LPS sepsis model even when peptide treatment is initiated after administration of LPS.

Test [4] deals with animals treated with low dose LPS plus D-GaLN. In words: Survival after low dose LPS plus D-GaLN. Type of test: in vivo.
The test system of test [5] is HC-NPC co-cultures. The test is described as follows: Inflammatory mediators in LPS-stimulated HC-NPC co-cultures. It is filed as cell-based. The note with it: stimulated with LPS.
Test [6] deals with TLR-dependent signaling. The note with it: in vitro; cited from earlier work.

In the case of “DIVKLTVYDCI-RRRRRRRRR (listed as Vaccinia virus) [P13, A52R amino acids 125 to 135 linked to nine arginines]”, in test [1], the “inhibition of IL-6 production” value is given as greater than 90% and the “inhibition of MIP-2 production” value is greater than 90%. Further, the “inhibition of serum TNF-α” value in test [2] (50 μg i.p. 30 min after 5 mg/kg LPS i.p.) was “did not reduce”. The “inhibition of serum TNF-α” value in test [2] (75 μg i.p. 30 min after 5 mg/kg LPS i.p.) is listed as “significant inhibition”. Also, in test [3], the “lethality at 36 hours” value is given as 60%, the “lethality at 74 hours” value was determined as 60% and the “survival at 96 hours” value was 40%. Besides, in test [4], the survival entry is on record as “enhance survival”. Besides, the “production of inflammatory mediators” value in test [5] was “reduced the production of inflammatory mediators”. Moreover, the “inhibition of TLR-dependent signaling” value in test [6] is recorded as “capable of in vitro inhibition”.
Take “ITCVDVDLIYK-RRRRRRRRR (ITCVDVDLIYKRRRRRRRRR; listed as Vaccinia virus) [scrambled control peptide, scrambled control of P13 with nine arginines, reference compound]”: in test [1], the “inhibition of IL-6 production” value is recorded as “only modest inhibition” and the “inhibition of MIP-2 production” value is recorded as “only modest inhibition”. In test [3], the “lethality at 36 hours” value amounted to 90% and the “lethality at 74 hours” value worked out at 100%.
